Literature values as cited in US6355270B1, “Particles for oral delivery of peptides and proteins” (The Regents of the University of California, priority 1999, dated 2002).
Like-named read-outs stand apart in the source and are kept apart here.

How the values were obtained:
[1] = test system: intestinal tight junctions; conditions: rabbit intestine, in vitro, reversible
[2] = test system: intestinal tight junctions; conditions: in vivo

For Zonula occludens toxin [Zot], the “increase of intestinal permeability to insulin” value ([1]; P=0.034) is given as 72%, the “increase of intestinal permeability to immunoglobulins” value ([1]; P=0.04) is given as 52% and the “increase of insulin absorption” value ([2]; both rabbit jejunum and ileum) is given as 10 fold. For the same substance, the “change of insulin absorption” value ([2]; rabbit colon) was “no substantial changes”, the “increase of IgG absorption” value ([2]; rabbit ileum) was “six-fold” and the “increase of IgG absorption” value ([2]; rabbit jejunum) was “twofold”. For the same substance, the survival time (diabetic rats; diabetic animals chronically treated with oral insulin+Zot, versus parenterally treated rats) was “comparable to that observed in parenterally treated rats” and the “lowering of serum glucose concentrations” value (diabetic rats; diabetic rats, oral insulin co-administered with Zot, versus parenteral injection of insulin) was “comparable to those obtained after parenteral injection of the hormone”.
